Reference: article PMC4299541 (Cardiovascular Diabetology, 2015)

Assays:
[1] = molecular target: T1, RAGE (receptor for AGEs), vRAGE (Homo sapiens, UniProt Q15109); assay: 27-MHz quartz crystal microbalance, vRAGE immobilized; format: binding
T1 construct: gene AGER

[2] = system: Control-aptamer (DNA, single strand, phosphorothioate linkages (positions as in ref 24)) TTCGGCCTGGGGGCGGCCAGTTCGGGTCCAGTCGCGGGAG; assay: quartz crystal microbalance (27 MHz); details: immobilised compound; highest concentration not stated
[3] = system: GLAP-aptamer (DNA, aptamer, phosphorothioate linkage at each three bases (exact positions drawn in Figure 1C)) GCGGGTTGGGAGCCACTAGTAGCAACGTGCGACCCTCTACGAAGCAAACCATCCTCA; assay: quartz crystal microbalance (27 MHz), curve fitting; details: immobilised compound; not affected by 2% fetal bovine serum
[4] = system: AGE-aptamer (DNA, aptamer, phosphorothioate linkages (positions drawn in Figure 3A)) TGTAGCCCGAGTATCATTCTCCATCGCCCCCAGATACAAG; assay: as above; details: aptamer immobilised, GLAP added; not affected by 2% fetal bovine serum

T1 sequence (Q15109 23-116 limits assumed): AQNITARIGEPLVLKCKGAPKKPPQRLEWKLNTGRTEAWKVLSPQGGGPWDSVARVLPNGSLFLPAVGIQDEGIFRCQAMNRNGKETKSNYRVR

Kd [1] [µM]	binding [2]	KD [3] [µM]	KD [4] [µM]	Compound
59				GLAP
	no	2.6	33	CC(=O)NC(CCCC[n+]1cc(O)cc(CO)c1)C(=O)O (racemic)
